Test system: GFP+ mGRPs, GFAP+ astrocytes, OLIG2+ oligodendrocytes
Method: Paraffin slides of the brain tissue after heated in 1 h in 60° C. were deparaffinized in: 1×10 min. Xylen I, 1×10 min Xylen II, 1×10 min EtOH 100%, 1×10 min EtOH 70%, 1×10 min EtOH 40%, 1×10 min dest. H2O. The target was retrieved in Citrate Buffer+Tween 20 (10 mM, pH=6.0) in a water bath for 20 minutes in 97° C. and then they were let cool down for another 20 minutes. Slides were washed in PBS three times and blocked 1 hour in 10% Goat serum+1% bovine albumin serum. All slides was incubated overnight at 4° C. with a first primary mouse Anti-GFP antibody 1:500 (Abcam Cat #ab1218, RRID: AB_298911). Washed three times with PBS, then secondary antibody Goat Anti-Mouse IgG H&L (Alexa Fluor® 488) in concentration 1:700 (Abcam Cat #ab 150117, RRID: AB_2688012) was applied for 40 min in RT. Then one part of the slides was washed three times in PBS and the second primary Rabbit Anti-GFAP antibody (Abcam Cat #ab7260, RRID: AB_305808) was applied 1:1000, incubated overnight at 4° C. After that the secondary antibody Goat Anti-Rabbit IgG H&L (Alexa Fluor® 594) (Abcam Cat #ab 150080, RRID: AB_2650602) was applied for 40 min RT in concentration 1:700. The second part of the slides was incubated with Rabbit Recombinant Anti-Olig2 antibody (Abcam Cat #ab109186, RRID: AB_10861310) 1:100 incubated overnight in 4° C. Next day the secondary antibody Goat Anti-Rabbit IgG H&L (Alexa Fluor® 594) (Abcam Cat #ab150080, RRID: AB_2650602) was applied for 40 min RT in 1:700 concentration. […] The slides were washed in PBS, mounted with DAKO mounting medium (Agilent Technologies, Santa Clara, CA, United States) and analyzed under Leica DM5500 fluorescent microscopy with LAS X software.

[1] = whole cross section of the mouse diencephalon

MVRIKPGSANKPSDD [sPIF] was tested, and the “mGRPs progeny: GFP+ astrocytes and oligodendrocytes in brain parenchyma” value (diencephalon, day 56) was “few GFP+ astrocytes and oligodendrocytes in the brain parenchyma”, the “area of astrocytes (GFAP+)” value [1] was “significantly larger area of astrocytes” and the “area of oligodendrocytes (OLIG2+)” value [1] was “larger area of oligodendrocytes”.

— patent US20250170212A1, “COMPOSITIONS AND METHODS OF TREATING AMYOTROPHIC LATERAL SCLEROSIS (ALS) AND RELATED DISORDERS” (BIOINCEPT, LLC, priority 2022, published 2025)
